Results as given in patent US20250195521A1 (Revolution Medicines, Inc., priority 2020, published 2025).
Read-outs that look alike come from different tables or passages of the source.

Columns and labels:
[1] = molecular target: NRAS G12C binding to BRAF RBD (Homo sapiens (Human), UniProt P01111+P62937, G12C); assay: Ras-Raf disruption/FRET/MOA assay, NRAS G12C; assay type: biochemical
Excerpt: (§1) Note—The following protocol describes a procedure for monitoring disruption of K-Ras G12C(GMP-PNP) binding to BRAF^RBD by a compound of the invention. This protocol may also be executed substituting other Ras proteins or nucleotides.
(§2) The purpose of this biochemical assay was to measure the ability of test compounds to facilitate ternary complex formation between a nucleotide-loaded K-Ras isoform and Cyclophilin A; the resulting ternary complex disrupts binding to a BRAF^RBD construct, inhibiting K-Ras signaling through a RAF effector. Data is reported as IC50 values.
(§3) Compound was present in plate wells as a 10-point 3-fold dilution series starting at a final concentration of 30 μM. After incubation at 25° C. for 3 hours, a mixture of Anti-His Eu—W1024 and anti-GST allophycocyanin was then added to assay sample wells at final concentrations of 10 nM and 50 nM, respectively, and the reaction incubated for an additional 1.5 hours. […] Compounds that facilitate disruption of a K-Ras: RAF complex were identified as those eliciting a decrease in the TR-FRET ratio relative to DMSO control wells.

[2] = molecular target: KRAS G13D binding to BRAF RBD (Homo sapiens (Human), UniProt P01116+P62937, G13D); assay: Ras-Raf disruption/FRET/MOA assay, KRAS G13D; assay type: biochemical
Chain of KRAS G13D binding to BRAF RBD (P01116 other isoform, or with tags, fused parts or gaps G13D): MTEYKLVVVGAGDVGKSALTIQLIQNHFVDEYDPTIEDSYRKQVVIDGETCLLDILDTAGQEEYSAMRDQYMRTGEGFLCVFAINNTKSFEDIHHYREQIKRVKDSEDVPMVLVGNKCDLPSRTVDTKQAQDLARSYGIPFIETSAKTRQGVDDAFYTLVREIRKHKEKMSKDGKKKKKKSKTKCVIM
Chain of KRAS G13D binding to BRAF RBD (P62937 whole entry): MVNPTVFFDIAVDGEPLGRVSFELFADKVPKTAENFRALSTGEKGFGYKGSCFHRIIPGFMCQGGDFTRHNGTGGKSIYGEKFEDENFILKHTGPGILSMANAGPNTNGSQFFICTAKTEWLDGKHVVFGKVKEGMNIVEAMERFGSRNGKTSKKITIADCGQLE
Excerpt: as §1, §2, §3

AsPC-1 (K-Ras G12D) [3] = assay: CellTiter-Glo cell viability assay, AsPC-1; assay type: cell-based, human; settings: Homo sapiens, ASPC1, 120 h, read-out: AsPC-1 Cell Viability IC50
In short: (§4)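 Compounds dispensed directly onto seeded K-Ras mutant cells; plates read on day 5 after ~30 min equilibration to room temperature, by CellTiter-Glo luminescence. Signal normalized as (sample/mean DMSO)×100, then fitted to a four-parameter logistic curve.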

NCI-H358 (K-Ras G12C) = assay: CellTiter-Glo cell viability assay, H358; assay type: cell-based, human; settings: Homo sapiens, NCI-H358, 120 h
In short: as §4

KRAS G13D = KRAS G13D (Homo sapiens (Human), UniProt P01116+P62937, G13D); assay: Ras-Raf disruption/FRET/MOA assay, KRAS G13D; assay type: biochemical
Chain of KRAS G13D (P01116 other isoform, or with tags, fused parts or gaps G13D): as the sequence (P01116 other isoform, or with tags, fused parts or gaps G13D) above
Chain of KRAS G13D (P62937 whole entry): as the sequence (P62937 whole entry) above
In short: (§5)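 TR-FRET of nucleotide-loaded (GMP-PNP) His6-Ras (12.5 nM) binding to GST-BRAF RBD (50 nM) with Cyclophilin A (25 μM) in HEPES pH 7.3 buffer; 10-point 3-fold compound series from 30 μM, 3 h at 25 °C, then anti-His Eu/anti-GST APC 1.5 h. IC50 from decreased FRET ratio vs DMSO.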

KRAS G12C = KRAS G12C (Homo sapiens (Human), UniProt P01116+P62937, G12C); assay: Ras-Raf disruption/FRET/MOA assay, KRAS G12C; assay type: biochemical
Chain of KRAS G12C (P01116-2 other isoform, or with tags, fused parts or gaps G12C): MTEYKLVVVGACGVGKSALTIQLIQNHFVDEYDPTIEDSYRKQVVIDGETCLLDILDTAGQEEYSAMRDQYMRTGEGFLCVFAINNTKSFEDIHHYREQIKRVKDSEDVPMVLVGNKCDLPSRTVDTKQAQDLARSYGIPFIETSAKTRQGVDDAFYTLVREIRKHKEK
Chain of KRAS G12C (P62937 whole entry): as the sequence (P62937 whole entry) above
In short: as §5

KRAS G12V = KRAS G12V (Homo sapiens (Human), UniProt P01116+P62937, G12V); assay: Ras-Raf disruption/FRET/MOA assay, KRAS G12V; assay type: biochemical
Chain of KRAS G12V (P01116 other isoform, or with tags, fused parts or gaps G12V): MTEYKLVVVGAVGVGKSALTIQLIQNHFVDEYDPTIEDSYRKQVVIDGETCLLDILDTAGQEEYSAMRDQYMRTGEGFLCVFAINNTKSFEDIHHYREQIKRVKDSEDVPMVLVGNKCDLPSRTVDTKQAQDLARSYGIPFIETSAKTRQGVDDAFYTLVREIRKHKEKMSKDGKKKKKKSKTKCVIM
Chain of KRAS G12V (P62937 whole entry): as the sequence (P62937 whole entry) above
In short: as §5

AsPC-1 (K-Ras G12D) [4] = assay: Potency assay: pERK; assay type: cell-based, human; settings: Homo sapiens
In short: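 Cells plated overnight, then exposed 4 h at 37 °C to 10-point 3-fold dilutions of compound, in duplicate. pERK read by AlphaLISA SureFire Ultra p-ERK1/2 lysate assay or by In-Cell Western (pERK antibody, DRAQ5 DNA normalisation). IC50 from 4-parameter sigmoidal fit of signal vs log concentration.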

KRAS G13C = KRAS G13C (Homo sapiens (Human), UniProt P01116+P62937, G13C); assay: Ras-Raf disruption/FRET/MOA assay, KRAS G13C; assay type: biochemical
Chain of KRAS G13C (P01116 other isoform, or with tags, fused parts or gaps G13C): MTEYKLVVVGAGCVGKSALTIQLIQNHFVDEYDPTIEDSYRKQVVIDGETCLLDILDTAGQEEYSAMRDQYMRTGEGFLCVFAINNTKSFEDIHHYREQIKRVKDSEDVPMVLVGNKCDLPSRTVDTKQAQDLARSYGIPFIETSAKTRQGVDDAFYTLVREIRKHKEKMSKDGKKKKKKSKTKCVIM
Chain of KRAS G13C (P62937 whole entry): as the sequence (P62937 whole entry) above
In short: as §5

KRAS G12S = KRAS G12S (Homo sapiens (Human), UniProt P01116+P62937, G12S); assay: Ras-Raf disruption/FRET/MOA assay, KRAS G12S; assay type: biochemical
Chain of KRAS G12S (P01116 other isoform, or with tags, fused parts or gaps G12S): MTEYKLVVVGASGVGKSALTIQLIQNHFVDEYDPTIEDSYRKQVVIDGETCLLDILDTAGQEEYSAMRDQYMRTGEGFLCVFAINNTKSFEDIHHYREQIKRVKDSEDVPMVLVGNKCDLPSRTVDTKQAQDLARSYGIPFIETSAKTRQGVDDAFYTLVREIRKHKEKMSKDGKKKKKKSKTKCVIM
Chain of KRAS G12S (P62937 whole entry): as the sequence (P62937 whole entry) above
In short: as §5

KRAS G12D = KRAS G12D (Homo sapiens (Human), UniProt P01116+P62937, G12D); assay: Ras-Raf disruption/FRET/MOA assay, KRAS G12D; assay type: biochemical
Chain of KRAS G12D (P01116 other isoform, or with tags, fused parts or gaps G12D): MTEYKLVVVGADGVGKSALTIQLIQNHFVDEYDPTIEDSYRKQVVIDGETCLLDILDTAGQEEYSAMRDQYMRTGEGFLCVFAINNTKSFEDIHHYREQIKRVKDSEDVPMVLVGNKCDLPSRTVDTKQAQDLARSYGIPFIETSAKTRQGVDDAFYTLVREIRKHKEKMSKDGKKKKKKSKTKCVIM
Chain of KRAS G12D (P62937 whole entry): as the sequence (P62937 whole entry) above
In short: as §5

KRAS WT = KRAS WT (Homo sapiens (Human), UniProt P01116+P62937); assay: Ras-Raf disruption/FRET/MOA assay, KRAS WT; assay type: biochemical
Chain of KRAS WT (P01116 other isoform, or with tags, fused parts or gaps): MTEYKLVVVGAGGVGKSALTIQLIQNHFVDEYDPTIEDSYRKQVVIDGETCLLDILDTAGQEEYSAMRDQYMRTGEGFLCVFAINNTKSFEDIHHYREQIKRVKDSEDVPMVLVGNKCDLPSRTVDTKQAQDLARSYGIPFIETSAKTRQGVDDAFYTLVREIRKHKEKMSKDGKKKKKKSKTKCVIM
Chain of KRAS WT (P62937 whole entry): as the sequence (P62937 whole entry) above
In short: as §5

NRAS G12C = NRAS G12C (Homo sapiens (Human), UniProt P01111+P62937, G12C); assay: Ras-Raf disruption/FRET/MOA assay, NRAS G12C; assay type: biochemical
Chain of NRAS G12C (P01111 whole entry G12C): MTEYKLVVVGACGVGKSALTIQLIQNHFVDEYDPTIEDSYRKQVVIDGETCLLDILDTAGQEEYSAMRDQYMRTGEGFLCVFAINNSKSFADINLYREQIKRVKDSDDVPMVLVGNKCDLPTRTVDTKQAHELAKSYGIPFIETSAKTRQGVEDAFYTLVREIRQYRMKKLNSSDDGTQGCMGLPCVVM
Chain of NRAS G12C (P62937 whole entry): as the sequence (P62937 whole entry) above
In short: as §5

[5] = read-out: H358 Cell Viability IC50, K-Ras G12C, 5-day treatment
[6] = read-out: KRAS G12C FRET data IC50
[7] = read-out: NRAS G12C FRET data IC50

Chain of NRAS G12C binding to BRAF RBD (P01111 whole entry G12C): as the sequence (P01111 whole entry G12C) above
Chain of NRAS G12C binding to BRAF RBD (P62937 whole entry): as the sequence (P62937 whole entry) above

CCn1c(-c2cccnc2[C@H](C)OC)c2c3cc(ccc31)-c1cccc(c1)C[C@H](NC(=O)[C@H](C(C)C)N(C)C(=O)[C@H]1CCN(C(=O)C#CC3CCO3)C1)C(=O)N1CC(Br)C[C@H](N1)C(=O)OCC(C)(C)C2 (some centres unmarked) [Compound A508]
IC50 [1]: 100 to 1000 nM
IC50 [2]: > 10000 nM

CCn1c(-c2cnccc2COC)c2c3cc(ccc31)-c1cc(O)cc(c1)C[C@H](NC(=O)[C@H](C(C)C)N(C)C(=O)CN(C)C(=O)[C@@H]1N[C@H]1c1ccccc1)C(=O)N1CCC[C@H](N1)C(=O)OCC(C)(C)C2 [Example 11]
IC50 (AsPC-1 (K-Ras G12D) [3]): 1000 to 10000 nM
IC50 (NCI-H358 (K-Ras G12C); [5]): 100 to 1000 nM
IC50 (KRAS G13D): 100 to 1000 nM
IC50 (KRAS G12C): 10 to 100 nM
IC50 (KRAS G12V): 10 to 100 nM
EC50 (AsPC-1 (K-Ras G12D) [4]; ASPC1, read-out: pERK EC50): < 5000 nM
IC50 (KRAS G13C): 10 to 100 nM
IC50 (KRAS G12S): 10 to 100 nM
IC50 (KRAS G12D): 1000 to 10000 nM
IC50 (KRAS WT): 100 to 1000 nM
IC50 (NRAS G12C): 10 to 100 nM

CCn1c(-c2cnccc2COC)c2c3cc(ccc31)-c1cc(O)cc(c1)C[C@H](NC(=O)[C@H](C(C)C)N(C)C(=O)CN(C)C(=O)[C@H]1N[C@@H]1c1ccccc1)C(=O)N1CCC[C@H](N1)C(=O)OCC(C)(C)C2 [Example 12]
IC50 (AsPC-1 (K-Ras G12D) [3]): 100 to 1000 nM
IC50 (NCI-H358 (K-Ras G12C); [5]): 100 to 1000 nM
IC50 (KRAS G13D): 10 to 100 nM
IC50 (KRAS G12C): 10 to 100 nM
IC50 (KRAS G12V): 10 to 100 nM
EC50 (AsPC-1 (K-Ras G12D) [4]; ASPC1, read-out: pERK EC50): < 5000 nM
IC50 (KRAS G13C): 10 to 100 nM
IC50 (KRAS G12S): 10 to 100 nM
IC50 (KRAS G12D): 100 to 1000 nM
IC50 (KRAS WT): 10 to 100 nM
IC50 (NRAS G12C): 10 to 100 nM

CCn1c(-c2cccnc2COC)c2c3cc(ccc31)-c1cc(O)cc(c1)C[C@H](NC(=O)[C@H](C(C)C)N(C)C(=O)CCNC(=O)NCCCl)C(=O)N1CCC[C@H](N1)C(=O)OCC(C)(C)C2 [Example 25, (2S)-2-(3-(3-(2-chloroethyl)ureido)-N-methylpropanamido)-N-((6^3S,4S)-1^1-ethyl-25-hydroxy-1^2-(2-(methoxymethyl)pyridin-3-yl)-10,10-dimethyl-5,7-dioxo-6^1,6^2,6^3,6^4,6^5,6^6-hexahydro-1^1H-8-oxa-1 (5,3)-indola-6 (1,3)-pyridazina-2 (1,3)-benzenacycloundecaphane-4-yl)-3-methylbutanamide]
IC50 (NCI-H358 (K-Ras G12C); [5]): > 10000 nM
IC50 (KRAS G13D): 1000 to 10000 nM
IC50 (KRAS G12C): 1000 to 10000 nM
IC50 (KRAS G12V): 1000 to 10000 nM
IC50 (KRAS G13C): 1000 to 10000 nM
IC50 (KRAS G12S): > 10000 nM
IC50 (KRAS G12D): > 10000 nM
IC50 (KRAS WT): 1000 to 10000 nM
IC50 (NRAS G12C): > 10000 nM

CCn1c(-c2cnccc2COC)c2c3cc(ccc31)-c1cc(O)cc(c1)C[C@H](NC(=O)[C@@H](CCNC1=NCCO1)C(C)C)C(=O)N1CCC[C@H](N1)C(=O)OCC(C)(C)C2 [Example 30]
IC50 (NCI-H358 (K-Ras G12C); read-out: H358 Cell Viability IC50): 1000 to 10000 nM
IC50 (KRAS G13D; read-out: KRAS G13D FRET IC50): 1000 to 10000 nM
IC50 (KRAS G12C; [6]): 1000 to 10000 nM
IC50 (KRAS G12V; read-out: KRAS G12V FRET IC50): 1000 to 10000 nM
IC50 (KRAS G13C; read-out: KRAS G13C FRET IC50): > 10000 nM
IC50 (KRAS G12S; read-out: KRAS G12S FRET IC50): > 10000 nM
IC50 (KRAS G12D; read-out: KRAS G12D FRET IC50): > 10000 nM
IC50 (KRAS WT; read-out: KRAS WT FRET IC50): 1000 to 10000 nM
IC50 (NRAS G12C; [7]): > 10000 nM

CCn1c(-c2cnccc2COC)c2c3cc(ccc31)-c1cc(O)cc(c1)C[C@H](NC(=O)[C@H](C(C)C)N(C)C(=O)CN(C)C(=O)[C@@H]1N[C@H]1c1ccc(OC)cc1)C(=O)N1CCC[C@H](N1)C(=O)OCC(C)(C)C2 [Example 96]
IC50 (AsPC-1 (K-Ras G12D) [3]): 1000 to 10000 nM
IC50 (NCI-H358 (K-Ras G12C); [5]): 1000 to 10000 nM
IC50 (KRAS G13D): 100 to 1000 nM
IC50 (KRAS G12C): 10 to 100 nM
IC50 (KRAS G12V): 10 to 100 nM
EC50 (AsPC-1 (K-Ras G12D) [4]; ASPC1, read-out: pERK EC50): < 5000 nM
IC50 (KRAS G13C): 10 to 100 nM
IC50 (KRAS G12S): 10 to 100 nM
IC50 (KRAS G12D): 100 to 1000 nM
IC50 (KRAS WT): 10 to 100 nM
IC50 (NRAS G12C): 10 to 100 nM

CCn1c(-c2cnccc2COC)c2c3cc(ccc31)-c1cc(O)cc(c1)C[C@H](NC(=O)[C@H](C(C)C)N(C)C(=O)CN(C)C(=O)[C@@H]1N[C@@H]1C1CC1)C(=O)N1CCC[C@H](N1)C(=O)OCC(C)(C)C2 [Example 103]
IC50 (AsPC-1 (K-Ras G12D) [3]): 100 to 1000 nM
IC50 (NCI-H358 (K-Ras G12C); [5]): 100 to 1000 nM
IC50 (KRAS G13D): 100 to 1000 nM
IC50 (KRAS G12C): 10 to 100 nM
IC50 (KRAS G12V): 10 to 100 nM
EC50 (AsPC-1 (K-Ras G12D) [4]; ASPC1, read-out: pERK EC50): < 5000 nM
IC50 (KRAS G13C): 10 to 100 nM
IC50 (KRAS G12S): 10 to 100 nM
IC50 (KRAS G12D): 10 to 100 nM
IC50 (KRAS WT): 10 to 100 nM
IC50 (NRAS G12C): 10 to 100 nM

CCn1c(-c2cccnc2[C@H](C)OC)c2c3cc(ccc31)-c1cc(O)cc(c1)C[C@H](NC(=O)[C@H](C(C)C)N1CC[C@@]3(CCC(C(=O)[C@@H]4N[C@@H]4C4CC4)C3)C1=O)C(=O)N1CCC[C@H](N1)C(=O)OCC(C)(C)C2 (some centres unmarked) [Example 128]
IC50 (AsPC-1 (K-Ras G12D) [3]; K-Ras G12D, 5-day treatment): 1000 to 10000 nM
IC50 (KRAS G13D; read-out: KRAS G13D FRET IC50): 100 to 1000 nM
IC50 (KRAS G12C; [6]): 10 to 100 nM
IC50 (KRAS G12V; read-out: KRAS G12V FRET IC50): 100 to 1000 nM
EC50 (AsPC-1 (K-Ras G12D) [4]; ASPC1, AsPC-1 KRAS G12D, read-out: pERK EC50): < 5000 nM
IC50 (KRAS G13C; read-out: KRAS G13C FRET IC50): 10 to 100 nM
IC50 (KRAS G12S; read-out: KRAS G12S FRET IC50): 100 to 1000 nM
IC50 (KRAS G12D; read-out: KRAS G12D FRET IC50): 100 to 1000 nM
IC50 (KRAS WT; read-out: KRAS WT FRET IC50): 100 to 1000 nM
IC50 (NRAS G12C; [7]): 10 to 100 nM
